This note sets out measurements from ChEMBL document CHEMBL4376820, “Homodimeric Tobramycin Adjuvant Repurposes Novobiocin as an Effective Antibacterial Agent against Gram-Negative Bacteria” (J Med Chem, 2019).

Test [1] concerns Pseudomonas aeruginosa. The test can be described thus: Synergistic antibacterial activity against wild type Pseudomonas aeruginosa PAO1 assessed as potentiation of colistin-induced antibacterial effect at <=7.1 uM incubated for 18 hrs by checkerboard assay. The class given is functional, organism-based.
A further test relates to Acinetobacter baumannii. Briefly: Antibacterial activity against wild type Acinetobacter baumannii ATCC 17978 incubated for 18 hrs by CLSI protocol based assay. It is filed as functional. The note with it: ATCC 17978, 18 h.
Test [2] has as its system Pseudomonas aeruginosa. The test can be described thus: Potentiation of novobiocin-induced antibacterial activity against carbapenem-resistant Pseudomonas aeruginosa 264-104354 clinical isolate assessed as novobiocin MIC at <= 7.1 uM incubated for 18 hrs by CLSI protocol based assay (reference value: 512 ug/ml). The class given is functional. The note with it: 264-104354, 18 h.

For test [3], the system named is Pseudomonas aeruginosa. Briefly: Antibacterial activity against carbapenem and colistin-resistant Pseudomonas aeruginosa 114228 clinical incubated for 18 hrs by CLSI protocol based assay B84. It is filed as functional. The following applies: Pseudomonas aeruginosa, 114228, 18 h.

The structures appear in SMILES notation. Calls of active or inactive are those of the source. No cut-off for these calls is given here.

The term MIC denotes the lowest concentration that inhibits growth of the organism. On to `NC[C@H]1O[C@H](O[C@H]2[C@H](OCCCCc3cn(CCCCO[C@@H]4[C@@H](O[C@H]5O[C@H](CO)[C@@H](O)[C@H](N)[C@H]5O)[C@H](N)C[C@H](N)[C@H]4O[C@H]4O[C@H](CN)[C@@H](O)C[C@H]4N)nn3)[C@@H](O[C@H]3O[C@H](CO)[C@@H](O)[C@H](N)[C@H]3O)[C@H](N)C[C@@H]2N)[C@H](N)C[C@@H]1O.O=C(O)C(F)(F)F.O=C(O)C(F)(F)F.O=C(O)C(F)(F)F.O=C(O)C(F)(F)F.O=C(O)C(F)(F)F.O=C(O)C(F)(F)F.O=C(O)C(F)(F)F.O=C(O)C(F)(F)F.O=C(O)C(F)(F)F.O=C(O)C(F)(F)F`, for which, in the test on Pseudomonas aeruginosa [1], the result was inactive. Moreover, the results for the MIC against Acinetobacter baumannii, in the test on Pseudomonas aeruginosa [2] and against Pseudomonas aeruginosa [3] were above 128 µg/mL, 8 µg/mL and above 128 µg/mL, respectively.
